This note sets out measurements from patent publication US6399574B1 (priority 1997, dated 2002).

Where a SMILES comes first, the peptide text is derived from it. [ ]: non-standard residue; d: D form. Gla = N[C@@H](CC(C(=O)O)C(=O)O)C(=O)O

The target of one assay is T1, NR1-1b/NR2B NMDA subtype (Homo sapiens, UniProt Q05586+Q13224).
T1 construct: expressed in transfected cells; host or cells: oocytes
The class given is cell-based.

The next assay addresses T2, NR1. 1B subtype (Homo sapiens, UniProt Q05586).
T2 construct: expressed in transfected cells; host or cells: oocytes
The class given is cell-based.

The test system of assay [1] is Frings audiogenic seizure susceptible mice. The settings on record: mouse, in vivo.

T1 sequence (Q13224 27-1484, other chains not shown): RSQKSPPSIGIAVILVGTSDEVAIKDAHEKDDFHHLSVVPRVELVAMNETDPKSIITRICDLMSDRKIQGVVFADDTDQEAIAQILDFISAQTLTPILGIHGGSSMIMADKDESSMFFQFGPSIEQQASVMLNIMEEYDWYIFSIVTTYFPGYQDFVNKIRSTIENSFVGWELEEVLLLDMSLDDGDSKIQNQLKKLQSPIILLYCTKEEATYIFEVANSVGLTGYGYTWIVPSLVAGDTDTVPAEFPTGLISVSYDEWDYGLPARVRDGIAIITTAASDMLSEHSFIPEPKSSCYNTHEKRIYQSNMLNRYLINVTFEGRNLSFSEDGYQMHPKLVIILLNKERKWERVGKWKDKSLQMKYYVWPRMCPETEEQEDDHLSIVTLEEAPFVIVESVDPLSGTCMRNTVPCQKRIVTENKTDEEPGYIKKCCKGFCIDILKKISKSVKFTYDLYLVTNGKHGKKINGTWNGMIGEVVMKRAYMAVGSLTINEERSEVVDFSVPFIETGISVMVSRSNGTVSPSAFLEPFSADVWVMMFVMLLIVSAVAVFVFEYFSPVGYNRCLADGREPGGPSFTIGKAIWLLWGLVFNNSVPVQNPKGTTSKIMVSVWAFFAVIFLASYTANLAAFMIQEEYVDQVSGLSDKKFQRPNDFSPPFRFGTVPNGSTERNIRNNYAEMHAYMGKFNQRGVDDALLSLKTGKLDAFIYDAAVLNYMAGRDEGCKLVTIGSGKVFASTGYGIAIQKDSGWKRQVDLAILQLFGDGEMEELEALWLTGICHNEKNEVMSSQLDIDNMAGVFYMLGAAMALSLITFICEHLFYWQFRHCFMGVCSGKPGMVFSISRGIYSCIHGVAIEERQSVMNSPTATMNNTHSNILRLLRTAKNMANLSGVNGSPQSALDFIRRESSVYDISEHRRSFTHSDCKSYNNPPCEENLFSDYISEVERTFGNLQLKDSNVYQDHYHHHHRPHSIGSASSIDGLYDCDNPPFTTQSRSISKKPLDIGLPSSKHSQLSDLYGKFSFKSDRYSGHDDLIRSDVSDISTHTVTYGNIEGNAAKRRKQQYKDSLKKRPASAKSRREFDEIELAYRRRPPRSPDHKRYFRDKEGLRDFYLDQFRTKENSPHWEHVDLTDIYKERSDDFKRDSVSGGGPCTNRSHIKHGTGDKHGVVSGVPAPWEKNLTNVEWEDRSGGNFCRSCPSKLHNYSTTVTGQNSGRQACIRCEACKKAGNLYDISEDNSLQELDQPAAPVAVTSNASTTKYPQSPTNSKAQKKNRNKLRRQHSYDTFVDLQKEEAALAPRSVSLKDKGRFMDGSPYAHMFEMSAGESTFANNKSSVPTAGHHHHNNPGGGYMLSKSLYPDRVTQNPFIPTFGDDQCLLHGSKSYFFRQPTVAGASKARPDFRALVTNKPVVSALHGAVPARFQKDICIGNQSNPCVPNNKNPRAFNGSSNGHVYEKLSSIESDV

Regarding `CC[C@H](C)[C@H](NC(=O)[C@H](CC(N)=O)NC(=O)[C@H](CC(C(=O)O)C(=O)O)NC(=O)[C@H](CCCNC(=N)N)NC(=O)[C@H](C)NC(=O)[C@H](CC(C)C)NC(=O)[C@H](CC(C(=O)O)C(=O)O)NC(=O)[C@H](C)NC(=O)[C@H](C)NC(=O)[C@H](CCSC)NC(=O)[C@H](CCCCN)NC(=O)[C@H](C)NC(=O)[C@@H](NC(=O)[C@H](CC(C(=O)O)C(=O)O)NC(=O)[C@H](CC(C(=O)O)C(=O)O)NC(=O)[C@H](CCC(=O)O)NC(=O)CN)C(C)C)C(=O)N[C@@H](C)C(=O)N[C@@H](CCCCN)C(=O)NCC(=O)N[C@H]1CSSC[C@@H](C(=O)N[C@@H](Cc2ccc(O)cc2)C(=O)N2CCC[C@H]2C(=O)O)NC(=O)[C@H](CC(N)=O)NC(=O)[C@H](C(C)C)NC(=O)[C@H](CCCCN)NC1=O` [Con R], on NR1-1b/NR2B NMDA subtype, the “affinity for NR1-1b/NR2B relative to NR1-1b/NR2D” value was “greater than 50 fold”; the “inhibition of the current produced in response to glutamate and glycine” value was “approximately 95%”; the “selectivity for the B splice variant in heteromeric complexes” value was “selective for the B splice variant”. Also, on NR1. 1B subtype, the “inhibition of homomeric NR1 complex, 1B subtype” value was “only inhibited the NR1. 1B subtype”.

As for `CSCC[C@H](NC(=O)[C@H](CCCCN)NC(=O)[C@H](CCC(N)=O)NC(=O)[C@H](Cc1ccc(O)cc1)NC(=O)[C@H](CC(C(=O)O)C(=O)O)NC(=O)[C@H](CC(C(=O)O)C(=O)O)NC(=O)[C@H](CCC(=O)O)NC(=O)CN)C(=O)N[C@@H](CC(C)C)C(=O)N[C@@H](CC(C(=O)O)C(=O)O)C(=O)N[C@@H](CC(N)=O)C(=O)N[C@@H](CC(C)C)C(=O)N[C@@H](CCCNC(=N)N)C(=O)N[C@@H](CC(C(=O)O)C(=O)O)C(=O)N[C@@H](C)C(=O)N[C@@H](CCC(=O)O)C(=O)N[C@H](C(=O)N[C@@H](CCCCN)C(=O)N[C@@H](CCCCN)C(=O)N[C@@H](CC(N)=O)C(=O)N[C@@H](C)C(N)=O)C(C)C` [Con T, Gly-Glu-Xaa1-Xaa1-Tyr-Gln-Lys-Met-Leu-Xaa2-Asn-Leu-Arg-Xaa2-Ala-Glu-Val-Lys-Lys-Asn-Ala] (H-GE[Gla][Gla]YQKML[Gla]NLR[Gla]AEVKKNA-NH2), in assay [1], the ED50 is 0.017 nmols and the “ED50 (pmol, i.c.v.)” value came to 5.1 pmol.
